Reference: paper PMC11079024, “Identification of a family of species-selective complex I inhibitors as potential anthelmintics” (Nature Communications, 2024)
“And” between values parts separate entries of the source, which are not always exact repeats. Equal values may be shown once. Read-outs that look alike come from different tables or passages of the source.

Legend:
[1] = test system: adult H. polygyrus; assay: microbe, parasite or virus in culture; assay type: cell-based, Heligmosomoides polygyrus; conditions: anaerobic, 24 hours after treatment; for killing at 10 µM: Heligmosomoides polygyrus, 24 h, adult H. polygyrus, affected = score equal to or lower than 1.5, read-out: Percent Worms Affected; for # of Worms Affected: worms with score equal to or lower than 1.5
Experimental: To investigate the impact of the eleven benzimidazole derivatives under anaerobic conditions, an anaerobic chamber with an integrated incubator (Coy Laboratory Products, USA) was used. The same procedure was followed as described for the aerobic drug screening in adult H. polygyrus, but the incubation took place within the anaerobic chamber (37 °C, 85% N2, 10% CO2, 5% H2). Benzimidazole derivatives were tested at a concentration of 10 µM. For scoring, the plates had to be removed from the anaerobic chamber. The whole experiment was performed two times i.e., two independent biological replicates.
The activities of eleven benzimidazole derivatives were tested against adult H. polygyrus viability in vitro under aerobic (+, white boxplots) and anaerobic (–, coloured boxplots) conditions (see Methods). After 24-hour chemical treatment, worm viability was manually scored by an examiner using a scale from 0 (dead) to 3 (motile); DMSO was used as a negative control in both aerobic and anaerobic conditions; levamisole was used as a positive control in anaerobic conditions. The percentage of affected worms (i.e., worms with a score equal to or lower than 1.5) in each biological replicate is shown; data are from two biological replicates. Within each boxplot, black horizontal lines denote group medians, boxes span from the 25th to the 75th percentile of each group’s distribution, and whiskers extend to the maximum and minimum values. […]

[2] = test system: anthelmintic/nematicide-resistant C. elegans mutant strains; assay: microbe, parasite or virus in culture; conditions: for LC50: Caenorhabditis elegans; for dose response data: mev-1 (tr355)
Text: In addition to the Caenorhabditis elegans wild-type N2 strain, this work included the following C. elegans strains: CB1003 (kynu-1(e1003) X); anthelmintic-resistant strains—CB3474 (ben-1(e1880) III), CB193 (unc-29(e193) I), HY496 (bre-1(ye4) IV), RB2119 (acr-23(ok2804) V), JD608 (avr-14(ad1302) I; avr-15(ad1051) V; glc-1 (pk54) V), NM1968 (slo-1(js379) V), RP2635 (mev-1(tr355) III); benzimidazole-resistant CRISPR strains—ECA882 (ben-1(ean64) III), ECA917 (ben-1(ean98) III), ECA1075 (ben-1(ean143) III), ECA1080 (ben-1(ean148) III). This work also featured several additional free-living nematode strains: C. briggsae strain AF16, P. pacificus strain PS312, and P. hermaphrodita strain B178. The four CRISPR-generated benzimidazole-resistant C. elegans mutants were generously provided by Prof. Erik Andersen (Johns Hopkins University); PS312 and B178 were generously provided by Prof. Peter Roy (University of Toronto); all other strains were obtained from the Caenorhabditis Genetics Center (CGC, University of Minnesota). All strains were cultured and propagated at 20 °C on NGM (nematode growth medium) agar plates seeded with E. coli OP50 (Stiernagle, 2006)[56].
Liquid development and viability assays were adapted from a previously established chemical screening protocol (Burns et al.)[24]. In brief, a saturated culture of E. coli HB101 was concentrated 2-fold in liquid NGM and 40 μL of this suspension was distributed to each well of a 96-well flat-bottom culture plate. 0.5 μL chemical solution (or DMSO alone) was added to each well (1% DMSO v/v) using either a multi-channel pipette or a pinning tool (V&P Scientific). L1 worms synchronized from an embryo preparation performed the day prior were diluted to a concentration of ~2 worms/μL in M9 buffer; 10 μL worm suspension was then added to each well. Culture plates were sealed with parafilm and placed in a plastic container lined with wet paper towels to prevent evaporation. Containers were then incubated for 6 days at 20 °C with shaking at 165 rpm. Following incubation, 300 μL M9 was added to each well to decrease the turbidity of the HB101-NGM suspension. Single images of each microplate well were then taken on a Nikon Ti Eclipse inverted microscope (Nikon NIS Elements AR). Images were processed using Python scripts to isolate worm-associated pixels from background. Scores of worm development and viability were determined as the sum of worm-associated pixels in each well. Development/viability scores for each well were divided by the development /viability scores for the corresponding DMSO controls, resulting in a relative viability value for each chemical. At least three biological replicates were performed for each dose-response experiment; relative viability values were averaged across replicates.
Supplementary Table 2. Sensitivity of anthelmintic/nematicide-resistant strains to Class A, B, and C
benzimidazole complex I inhibitors.
LC50s were estimated from fitted dose-
response curves; all dose response data are the mean of at least three biological replicates.
Supplementary Table 2. Davie et al.

Cc1nc2ccccc2n1Cc1ccc(Br)cc1 [Compound 5567167]
killing at 10 µM ([1]; replicate 1): 50%
killing at 10 µM ([1]; replicate 2): 67%
# of Worms Affected ([1]; replicate 1): 3
# of Worms Affected ([1]; replicate 2): 4

Cc1nc2ccccc2n1Cc1ccccc1Cl [Compound 6707368]
killing at 10 µM ([1]; replicate 1): 100%
killing at 10 µM ([1]; replicate 2): 33%
# of Worms Affected ([1]; replicate 1): 6
# of Worms Affected ([1]; replicate 2): 2

Clc1ccc(Cn2cnc3ccccc32)c(Cl)c1 [Compound 6750659]
killing at 10 µM ([1]; replicate 1): 50%
killing at 10 µM ([1]; replicate 2): 67%
# of Worms Affected ([1]; replicate 1): 3
# of Worms Affected ([1]; replicate 2): 4

Cc1ccccc1OCCCCn1cnc2ccccc21 [Compound 7732524]
killing at 10 µM ([1]; replicate 1): 60%
killing at 10 µM ([1]; replicate 2): 0%
# of Worms Affected ([1]; replicate 1): 3
# of Worms Affected ([1]; replicate 2): 0
LC50 ([2]; read-out: C. elegans Development & Viability LC50, acr-23(ok2804)): 50.2 µM
LC50 ([2]; read-out: C. elegans Development & Viability LC50, avr-14(ad1302), avr-15(ad1051), glc-1(pk54)): 46.5 µM
LC50 ([2]; read-out: C. elegans Development & Viability LC50, ben-1(e1880)): 50 µM
LC50 ([2]; read-out: C. elegans Development & Viability LC50, bre-1(ye4)): 41.2 µM
LC50 ([2]; read-out: C. elegans Development & Viability LC50, mev-1(tr355)): 42.9 µM
LC50 ([2]; read-out: C. elegans Development & Viability LC50, slo-1(js379)): 31.4 µM
LC50 ([2]; read-out: C. elegans Development & Viability LC50, unc-29(e193)): 37.8 µM
dose response data ([2]; concentration step 1 of 13 (c108)): 0.998 and 1.000
dose response data ([2]; concentration step 3 of 13 (c110)): 0.989 and 1.000
dose response data ([2]; concentration step 4 of 13 (c111)): 1.000 and 0.845
dose response data ([2]; concentration step 5 of 13 (c112)): 1.000 and 0.955
dose response data ([2]; concentration step 6 of 13 (c113)): 1.000 and 0.835
dose response data ([2]; concentration step 7 of 13 (c114)): 1.000
dose response data ([2]; concentration step 8 of 13 (c115)): 1.000 and 0.746

Clc1ccc(SCCCCn2cnc3ccccc32)cc1 [Compound 7925515]
killing at 10 µM ([1]; replicate 1): 100%
killing at 10 µM ([1]; replicate 2): 83%
# of Worms Affected ([1]; replicate 1): 5
# of Worms Affected ([1]; replicate 2): 5

Clc1ccccc1OCCCCn1cnc2ccccc21 [Compound 7925804]
killing at 10 µM ([1]; replicate 1): 50%
# of Worms Affected ([1]; replicate 1): 3
# of Worms Affected ([1]; replicate 2): 6
Worm viability score, individual worms (Worm1-Worm20) ([1]; replicate 2, scale from 0 (dead) to 3 (motile)): 2 (3×) and 1.5 (2×) and 1

CCn1c(C(C)c2ccc(CC(C)C)cc2)nc2ccccc21 (stereo not drawn) [STK951902]
killing at 10 µM ([1]; replicate 1): 100%
killing at 10 µM ([1]; replicate 2): 67%
# of Worms Affected ([1]; replicate 1): 6
# of Worms Affected ([1]; replicate 2): 4

CC(C)Cc1ccc(C(C)c2nc3ccccc3n2C(C)C)cc1 (stereo not drawn) [STK951903]
killing at 10 µM ([1]; replicate 1): 67%
killing at 10 µM ([1]; replicate 2): 83%
# of Worms Affected ([1]; replicate 1): 4
# of Worms Affected ([1]; replicate 2): 5

COC(=O)Nc1nc2ccc(C(=O)c3ccccc3)cc2[nH]1 [mebendazole, reference compound]
C. elegans L1 relative development & viability ([2]; CB3474 G104D (ben-1), 1 µM, score 0-1 relative to DMSO, values >1 set to 1): 1.000
C. elegans L1 relative development & viability ([2]; CB3474 G104D (ben-1), 2 µM, score 0-1 relative to DMSO, values >1 set to 1): 1.000
C. elegans L1 relative development & viability ([2]; CB3474 G104D (ben-1), 3.9 µM, score 0-1 relative to DMSO, values >1 set to 1): 1.000
C. elegans L1 relative development & viability ([2]; CB3474 G104D (ben-1), 15.6 µM, score 0-1 relative to DMSO, values >1 set to 1): 1.000
C. elegans L1 relative development & viability ([2]; CB3474 G104D (ben-1), 31.3 µM, score 0-1 relative to DMSO, values >1 set to 1): 1.000
C. elegans L1 relative development & viability ([2]; CB3474 G104D (ben-1), 62.5 µM, score 0-1 relative to DMSO, values >1 set to 1): 1.000
C. elegans L1 relative development & viability ([2]; CB3474 G104D (ben-1), 125 µM, […]): 0.918
C. elegans L1 relative development & viability ([2]; CB3474 G104D (ben-1), 250 µM, […]): 0.816
C. elegans L1 relative development & viability ([2]; ECA917 F200Y (ben-1), 1 µM, score 0-1 relative to DMSO, values >1 set to 1): 1.000
C. elegans L1 relative development & viability ([2]; ECA917 F200Y (ben-1), 2 µM, score 0-1 relative to DMSO, values >1 set to 1): 1.000
C. elegans L1 relative development & viability ([2]; ECA917 F200Y (ben-1), 3.9 µM, score 0-1 relative to DMSO, values >1 set to 1): 1.000
C. elegans L1 relative development & viability ([2]; ECA917 F200Y (ben-1), 15.6 µM, score 0-1 relative to DMSO, values >1 set to 1): 1.000
C. elegans L1 relative development & viability ([2]; ECA917 F200Y (ben-1), 31.3 µM, […]): 0.958
C. elegans L1 relative development & viability ([2]; ECA917 F200Y (ben-1), 62.5 µM, […]): 0.687
C. elegans L1 relative development & viability ([2]; ECA917 F200Y (ben-1), 125 µM, […]): 0.515
C. elegans L1 relative development & viability ([2]; ECA917 F200Y (ben-1), 250 µM, […]): 0.575
C. elegans L1 relative development & viability ([2]; ECA1075 F167Y (ben-1), 1 µM, score 0-1 relative to DMSO, values >1 set to 1): 1.000
C. elegans L1 relative development & viability ([2]; ECA1075 F167Y (ben-1), 2 µM, score 0-1 relative to DMSO, values >1 set to 1): 1.000
C. elegans L1 relative development & viability ([2]; ECA1075 F167Y (ben-1), 3.9 µM, score 0-1 relative to DMSO, values >1 set to 1): 1.000
C. elegans L1 relative development & viability ([2]; ECA1075 F167Y (ben-1), 15.6 µM, score 0-1 relative to DMSO, values >1 set to 1): 1.000
C. elegans L1 relative development & viability ([2]; ECA1075 F167Y (ben-1), 31.3 µM, […]): 0.936
C. elegans L1 relative development & viability ([2]; ECA1075 F167Y (ben-1), 62.5 µM, […]): 0.436
C. elegans L1 relative development & viability ([2]; ECA1075 F167Y (ben-1), 125 µM, […]): 0.502
C. elegans L1 relative development & viability ([2]; ECA1075 F167Y (ben-1), 250 µM, […]): 0.324
C. elegans L1 relative development & viability ([2]; ECA1080 E198A (ben-1), 1 µM, score 0-1 relative to DMSO, values >1 set to 1): 1.000
C. elegans L1 relative development & viability ([2]; ECA1080 E198A (ben-1), 2 µM, score 0-1 relative to DMSO, values >1 set to 1): 1.000
C. elegans L1 relative development & viability ([2]; ECA1080 E198A (ben-1), 3.9 µM, score 0-1 relative to DMSO, values >1 set to 1): 1.000
C. elegans L1 relative development & viability ([2]; ECA1080 E198A (ben-1), 15.6 µM, score 0-1 relative to DMSO, values >1 set to 1): 1.000
C. elegans L1 relative development & viability ([2]; ECA1080 E198A (ben-1), 31.3 µM, score 0-1 relative to DMSO, values >1 set to 1): 1.000
C. elegans L1 relative development & viability ([2]; ECA1080 E198A (ben-1), 62.5 µM, […]): 0.746
C. elegans L1 relative development & viability ([2]; ECA1080 E198A (ben-1), 125 µM, […]): 0.386
C. elegans L1 relative development & viability ([2]; ECA1080 E198A (ben-1), 250 µM, […]): 0.470
